Results reported in ChEMBL document CHEMBL1201862, “PubChem BioAssay data set” (2004).
Values joined by “and” are separate entries in the source; they are usually repeats but may differ in a detail not shown here. Equal values may be shown once. Active and inactive are the calls of the source.

Tests used:
[1] = target: 1-phosphatidylinositol 4,5-bisphosphate phosphodiesterase gamma-1 (Homo sapiens, UniProt P19174); assay: Counterscreen for inhibitors of phospholipase C isozymes (PLC-B3): Fluorescence-based biochemical high throughput dose response assay to identify inhibitors of phospholipase C isozymes (PLC-gamma1).
[2] = target: 1-phosphatidylinositol 4,5-bisphosphate phosphodiesterase beta-3 (Homo sapiens, UniProt Q01970); assay: Fluorescence-based biochemical high throughput dose response assay to identify inhibitors of phospholipase C isozymes (PLC-B3).
cells = details: HEK293
[3] = target: T1, Beta-2 adrenergic receptor (Homo sapiens, UniProt P07550); assay: beta2AR agonists driving receptor internalization, dose response, cell-based, FAP fluorogen, flow cytometry, cherry pick 1 (AID 588763); format: functional
[4] = target: T1, Beta-2 adrenergic receptor; assay: Dose response for HTS for Beta-2AR agonists via FAP method from Powderset1.; format: functional
[5] = test system: Streptococcus sp. 'group A'; assay: growth inhibition of control SK(-) GAS strain, dose response, counter-screen for streptokinase expression inhibitor project, luminescence, kanamycin, BacTiterGlo, confirmation (AID 1900); format: functional, organism-based
Streptococcus = assay: Group A Streptococcus viability loss, dose response, counter-screen for streptokinase expression inhibitor project, luminescence, BacTiterGlo (AID 1915); format: functional, organism-based;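 also: potency for reduction of bacterial viability or growth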
[6] = human group III sPLA2 inhibitors, dose response, biochemical, QFRET, IC50 (AID 743457);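 also: green fluorescence rise as the enzyme cleaves BODIPY PC-A2 in liposomes; potency for inhibition of the enzyme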
Beta-galactosidase = Beta-galactosidase (Escherichia coli, UniProt Q8VNN2); assay: Dose response counterscreen for EBI2 assay utilizing the enzyme, b-galactosidase.; format: functional
[7] = HEK293T cell cytotoxicity, dose response, cytotoxicity control for HIV Vif inhibitor project, cherry-picks (AID 652208); format: functional, cell-based
Estrogen receptor beta [8] = target: T2, Estrogen receptor beta (Homo sapiens, UniProt Q92731);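 also: recombinant ER-beta bound to coactivator SRC1 peptide in presence of estradiol agonist; inhibitors block coactivator peptide binding and lower the FRET signal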
Estrogen receptor beta [9] = target: T2, Estrogen receptor beta; assay: ERβ–SRC-3 coactivator interaction inhibitors, confirmation, orthogonal assay, biochemical, ELISA, streptavidin-HRP readout (AID 1060)
[10] = HEK293 cell cytotoxicity, dose response, cytotoxicity control, plate reader, cherry-picked samples (AID 743446); format: functional, cell-based
[11] = MC4R antagonists, dose response, counter-screen for LGR2 antagonist project, cell-based, plate reader, cherry pick (AID 743444); format: functional;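 also: transfected HEK 293 cells stimulated with alpha-MSH peptide; potency of inhibitors of the alpha-MSH evoked signal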
[12] = HepG2 cell cytotoxicity, dose response, cytotoxicity control, plate reader, cherry-pick, antagonist series (AID 743416); format: functional, cell-based
[13] = LGR2 antagonists, dose response, cell-based, HEK293, CRE-luciferase reporter, cherry pick, set 2 (AID 743343); format: functional;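 also: transfected cells were stimulated with diluted bursicon conditioned medium after compound addition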
Caspase-7 = Caspase-7 (Homo sapiens, UniProt P55210); assay: human caspase-7 inhibitors, dose response, selectivity assay for caspase-6 inhibitor project, biochemical, DEVD-R110 fluorescence, cherry-pick (AID 743295)
Caspase-6 = target: T3, Caspase-6 (Homo sapiens, UniProt P55212); assay: human caspase-6 inhibitors, dose response, biochemical, VEID-R110 fluorescence, cherry-pick (AID 720632)
T3 sequence (P55212 whole entry): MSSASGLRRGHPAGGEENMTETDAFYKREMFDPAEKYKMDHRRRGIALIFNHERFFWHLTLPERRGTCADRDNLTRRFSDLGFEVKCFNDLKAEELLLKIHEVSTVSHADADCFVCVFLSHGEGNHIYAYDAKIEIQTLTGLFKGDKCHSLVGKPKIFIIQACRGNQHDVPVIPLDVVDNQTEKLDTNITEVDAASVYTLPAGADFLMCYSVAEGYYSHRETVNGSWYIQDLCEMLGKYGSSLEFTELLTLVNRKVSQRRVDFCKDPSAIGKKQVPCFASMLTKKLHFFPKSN

Caspase-3 = target: T4, Caspase-3 (Homo sapiens, UniProt P42574); assay: caspase-3 enzyme inhibitors, selectivity check, dose response, selectivity assay for caspase-6 allosteric inhibitor project, biochemical, fluorescence, cherry-picked samples (AID 743291)
T4 sequence (P42574 whole entry): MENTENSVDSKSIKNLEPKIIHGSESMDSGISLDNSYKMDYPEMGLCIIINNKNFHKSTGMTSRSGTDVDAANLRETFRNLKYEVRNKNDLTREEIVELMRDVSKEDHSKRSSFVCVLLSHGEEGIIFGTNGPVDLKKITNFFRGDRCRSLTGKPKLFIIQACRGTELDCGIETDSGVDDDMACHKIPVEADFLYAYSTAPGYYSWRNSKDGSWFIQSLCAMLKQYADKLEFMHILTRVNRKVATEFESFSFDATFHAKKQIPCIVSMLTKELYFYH

Genome polyprotein = Genome polyprotein (dengue virus type 2, UniProt P29990); assay: Dengue-2 NS5 methyltransferase inhibitors, primary screen, biochemical, confirmation dose response (AID 588689); format: functional
Chain of Genome polyprotein (P29990 2492-3391 limits assumed): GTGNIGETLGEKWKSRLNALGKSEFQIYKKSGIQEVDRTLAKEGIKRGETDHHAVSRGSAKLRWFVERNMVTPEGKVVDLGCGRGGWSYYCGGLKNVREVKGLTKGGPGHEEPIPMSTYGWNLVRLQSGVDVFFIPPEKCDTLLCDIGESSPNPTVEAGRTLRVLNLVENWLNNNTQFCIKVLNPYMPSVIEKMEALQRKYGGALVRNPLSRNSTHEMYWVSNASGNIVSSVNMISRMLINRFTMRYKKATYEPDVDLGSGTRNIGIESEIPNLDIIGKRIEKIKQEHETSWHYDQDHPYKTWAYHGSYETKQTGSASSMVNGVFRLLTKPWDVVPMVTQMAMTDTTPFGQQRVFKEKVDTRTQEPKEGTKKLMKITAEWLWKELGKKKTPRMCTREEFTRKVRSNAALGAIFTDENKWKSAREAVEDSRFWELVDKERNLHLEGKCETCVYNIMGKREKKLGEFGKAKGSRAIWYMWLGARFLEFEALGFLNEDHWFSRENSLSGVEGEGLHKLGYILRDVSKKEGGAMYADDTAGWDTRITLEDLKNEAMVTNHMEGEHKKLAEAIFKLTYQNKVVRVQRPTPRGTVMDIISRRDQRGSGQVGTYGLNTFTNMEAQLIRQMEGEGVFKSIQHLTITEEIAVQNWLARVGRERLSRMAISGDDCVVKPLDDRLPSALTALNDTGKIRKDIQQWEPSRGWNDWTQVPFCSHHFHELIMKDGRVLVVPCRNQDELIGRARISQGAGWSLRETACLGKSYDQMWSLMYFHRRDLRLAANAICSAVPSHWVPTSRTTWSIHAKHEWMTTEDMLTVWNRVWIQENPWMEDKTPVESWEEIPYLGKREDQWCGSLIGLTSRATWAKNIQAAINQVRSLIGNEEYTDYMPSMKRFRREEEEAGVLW

T1 sequence (P07550 whole entry): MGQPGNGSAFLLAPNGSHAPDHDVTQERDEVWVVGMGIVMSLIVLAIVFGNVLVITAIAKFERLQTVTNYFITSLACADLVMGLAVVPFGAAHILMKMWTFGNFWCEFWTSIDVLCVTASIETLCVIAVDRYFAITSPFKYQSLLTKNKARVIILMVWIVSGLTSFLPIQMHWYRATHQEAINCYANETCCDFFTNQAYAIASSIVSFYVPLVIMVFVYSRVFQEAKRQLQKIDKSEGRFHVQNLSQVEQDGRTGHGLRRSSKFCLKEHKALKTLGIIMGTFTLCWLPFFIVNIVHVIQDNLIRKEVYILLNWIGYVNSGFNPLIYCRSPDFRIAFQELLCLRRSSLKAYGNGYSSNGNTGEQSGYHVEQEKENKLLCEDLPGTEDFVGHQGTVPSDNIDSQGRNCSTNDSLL
T2 sequence (Q92731 whole entry): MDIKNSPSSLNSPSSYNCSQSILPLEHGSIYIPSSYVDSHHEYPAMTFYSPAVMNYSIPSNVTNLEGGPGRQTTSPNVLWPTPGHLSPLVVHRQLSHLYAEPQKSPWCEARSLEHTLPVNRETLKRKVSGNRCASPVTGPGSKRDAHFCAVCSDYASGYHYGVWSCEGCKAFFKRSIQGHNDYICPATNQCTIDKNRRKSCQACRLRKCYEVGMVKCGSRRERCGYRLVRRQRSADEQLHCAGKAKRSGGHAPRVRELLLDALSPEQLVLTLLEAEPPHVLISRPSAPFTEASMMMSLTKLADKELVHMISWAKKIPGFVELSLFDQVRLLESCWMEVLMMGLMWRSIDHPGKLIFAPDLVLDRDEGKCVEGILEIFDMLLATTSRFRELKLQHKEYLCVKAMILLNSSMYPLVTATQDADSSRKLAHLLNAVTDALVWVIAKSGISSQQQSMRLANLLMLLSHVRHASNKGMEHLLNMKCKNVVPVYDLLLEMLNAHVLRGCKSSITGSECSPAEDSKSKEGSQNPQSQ
Chain of 1-phosphatidylinositol 4,5-bisphosphate phosphodiesterase beta-3 (Q01970 whole entry): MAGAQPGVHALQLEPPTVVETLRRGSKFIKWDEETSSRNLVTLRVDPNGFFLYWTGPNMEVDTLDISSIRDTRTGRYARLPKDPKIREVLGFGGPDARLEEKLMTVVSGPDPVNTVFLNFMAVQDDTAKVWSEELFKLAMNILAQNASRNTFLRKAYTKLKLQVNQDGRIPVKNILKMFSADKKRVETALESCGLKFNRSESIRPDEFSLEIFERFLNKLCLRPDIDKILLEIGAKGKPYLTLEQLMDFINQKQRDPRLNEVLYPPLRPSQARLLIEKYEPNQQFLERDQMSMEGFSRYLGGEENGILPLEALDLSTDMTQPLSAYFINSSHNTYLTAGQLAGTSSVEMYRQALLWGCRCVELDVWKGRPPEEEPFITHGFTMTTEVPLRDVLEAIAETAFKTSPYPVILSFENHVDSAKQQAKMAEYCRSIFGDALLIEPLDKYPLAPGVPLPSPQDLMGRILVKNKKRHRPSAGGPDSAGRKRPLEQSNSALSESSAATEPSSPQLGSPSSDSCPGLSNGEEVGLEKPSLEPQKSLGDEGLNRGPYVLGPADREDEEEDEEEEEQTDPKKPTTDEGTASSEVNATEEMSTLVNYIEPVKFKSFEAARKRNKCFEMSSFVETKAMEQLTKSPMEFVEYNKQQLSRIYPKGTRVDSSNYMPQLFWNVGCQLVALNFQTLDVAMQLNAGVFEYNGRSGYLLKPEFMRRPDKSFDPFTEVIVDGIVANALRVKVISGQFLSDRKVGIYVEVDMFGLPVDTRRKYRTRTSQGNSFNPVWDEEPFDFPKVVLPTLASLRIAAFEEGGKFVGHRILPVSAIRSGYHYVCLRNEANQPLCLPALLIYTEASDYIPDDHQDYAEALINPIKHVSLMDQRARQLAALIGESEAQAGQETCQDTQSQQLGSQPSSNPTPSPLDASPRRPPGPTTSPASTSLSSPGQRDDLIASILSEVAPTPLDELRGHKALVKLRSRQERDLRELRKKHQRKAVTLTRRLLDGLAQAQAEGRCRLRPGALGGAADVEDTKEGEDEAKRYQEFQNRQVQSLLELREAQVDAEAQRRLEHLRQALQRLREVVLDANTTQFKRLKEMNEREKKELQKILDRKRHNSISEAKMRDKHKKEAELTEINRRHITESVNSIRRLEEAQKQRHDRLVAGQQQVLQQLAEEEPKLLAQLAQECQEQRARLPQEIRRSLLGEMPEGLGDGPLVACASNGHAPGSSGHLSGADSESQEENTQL
Chain of Beta-galactosidase (Q8VNN2 whole entry): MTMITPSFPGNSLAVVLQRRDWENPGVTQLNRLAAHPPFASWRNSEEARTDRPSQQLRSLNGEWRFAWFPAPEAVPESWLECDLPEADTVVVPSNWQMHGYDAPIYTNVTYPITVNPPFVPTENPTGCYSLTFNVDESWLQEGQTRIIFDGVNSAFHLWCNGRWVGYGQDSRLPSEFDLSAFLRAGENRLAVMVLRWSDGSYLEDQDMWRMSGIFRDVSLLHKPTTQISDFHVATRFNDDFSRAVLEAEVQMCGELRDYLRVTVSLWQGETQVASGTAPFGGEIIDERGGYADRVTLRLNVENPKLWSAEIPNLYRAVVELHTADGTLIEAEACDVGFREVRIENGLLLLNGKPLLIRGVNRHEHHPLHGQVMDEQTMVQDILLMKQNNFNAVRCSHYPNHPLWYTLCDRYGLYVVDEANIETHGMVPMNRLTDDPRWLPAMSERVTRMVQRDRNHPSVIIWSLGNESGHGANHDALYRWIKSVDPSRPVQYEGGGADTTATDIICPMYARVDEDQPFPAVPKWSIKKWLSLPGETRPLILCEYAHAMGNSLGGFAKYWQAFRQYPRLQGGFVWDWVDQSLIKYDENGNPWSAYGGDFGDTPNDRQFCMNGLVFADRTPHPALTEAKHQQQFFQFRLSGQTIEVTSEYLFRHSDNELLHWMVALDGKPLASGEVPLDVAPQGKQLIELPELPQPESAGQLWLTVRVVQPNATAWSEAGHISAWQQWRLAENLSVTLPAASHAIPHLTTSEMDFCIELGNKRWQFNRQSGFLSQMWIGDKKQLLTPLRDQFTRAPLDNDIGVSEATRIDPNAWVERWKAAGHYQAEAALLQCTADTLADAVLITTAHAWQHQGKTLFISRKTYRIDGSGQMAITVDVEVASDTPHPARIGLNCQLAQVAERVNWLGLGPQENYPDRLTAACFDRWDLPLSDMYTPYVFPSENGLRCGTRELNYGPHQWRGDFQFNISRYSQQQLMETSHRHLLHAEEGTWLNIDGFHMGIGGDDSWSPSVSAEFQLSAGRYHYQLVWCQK
Chain of Caspase-7 (P55210 24-198 limits assumed): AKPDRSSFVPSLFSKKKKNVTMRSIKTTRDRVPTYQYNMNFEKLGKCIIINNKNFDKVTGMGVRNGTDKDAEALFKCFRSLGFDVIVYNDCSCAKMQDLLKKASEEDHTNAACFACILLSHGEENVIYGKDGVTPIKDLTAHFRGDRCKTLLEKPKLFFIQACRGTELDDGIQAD
Chain of Caspase-7 (P55210 207-303 limits assumed): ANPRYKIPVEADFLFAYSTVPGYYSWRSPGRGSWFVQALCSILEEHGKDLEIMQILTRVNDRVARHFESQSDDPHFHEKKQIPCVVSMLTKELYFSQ

O=C1C[S+]([O-])CN1c1ccc(Oc2ccccc2)cc1 (stereo unspecified)
IC50 [1]: 12.5 µM (inactive)
IC50 [2]: > 122 µM (inactive)

CCOCCCN=C(S)N1CCCN(c2nc3cc(C)c(C)cc3cc2C#N)CC1
AC50 (cells): > 52 µM (inactive)

Cc1ccc(OCC(=O)Nc2ccc(-c3nc4ncccc4o3)cc2)c(C)c1
EC50 [3]: 316 nM (active) and 92.7 nM (active)
EC50 [4]: 0.503 µM (active)

Cc1ccc(C(=O)NC(=S)NNC(=O)c2ccccc2O)cc1
EC50 [5]: 1.29 µM (active)
EC50 (Streptococcus): 5.63 µM (active)
IC50 [6]: > 122 µM (inactive)

O=C(/C=C/c1ccc([N+](=O)[O-])cc1)N1CCN(S(=O)(=O)c2cccs2)CC1
IC50 (Beta-galactosidase): > 80 µM (inactive)

CCOc1c(C(N)=O)c(-c2ccccc2)c2c(O)nc3ccccc3n12
AC50 [7]: 49.9 µM (active)
IC50 (Estrogen receptor beta [8]): 33.6 µM (not active)
IC50 (Estrogen receptor beta [9]): > 50 µM (not active)

COc1ccc(NC(=O)Nc2cccc([N+](=O)[O-])c2)cc1Cl
AC50 [10]: > 52 µM (inactive)
AC50 [11]: 34.3 µM (active)
AC50 [12]: 26.8 µM (active)
AC50 [13]: 33.1 µM (active)

CC(Cc1ccc(O)cc1)NCC(O)c1ccc(O)c(O)c1 (stereo unspecified)
AC50 (Caspase-7): > 70 µM (inactive)
AC50 (Caspase-6): 3.68 µM (active)
AC50 (Caspase-3): 24.5 µM (active)
EC50 [3]: 553 nM (active)
IC50 (Genome polyprotein): > 100 µM (active)
